From patent publication US10766869B2, “Triazoles for the treatment of demyelinating dieases” (Vertex Pharmaceuticals Incorporated, priority 2015, dated 2020) come the findings set out here.

In the assay the test system is primary rat mixed cortical cells. As to the kind of experiment: In vitro myelination assay (MBP positive myelin strands, fold myelin pixels above background). It is filed as cell-based. As to conditions: Rattus norvegicus; for fold induction at 1 µM: 1.0 μM compound; for fold induction at 10 µM: 10.0 μM compound. Summed up: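 Mixed cortical culture, P1 rat, 87,500-95,000 cells/well; compound present from seeding, refreshed days 6 and 10; 14 d, 37 °C, 5% CO2. Day 14: PFA fix, anti-MBP + Hoechst. Read-out: fold MBP myelin pixels over untreated, tested at 1.0 and 10.0 μM.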

Where [1] appears, read: relative to baseline of no added compound, read-out: Fold myelin pixels above background.
Setting [2] is: read-out: Fold myelin pixels above background relative to baseline of no added compound.
[3] abbreviates: relative to baseline of no added compound, read-out: Fold myelin pixels above background, 1.0 μM.
[4] abbreviates: relative to baseline of no added compound, read-out: Fold myelin pixels above background, 10.0 μM.

SMILES strings stand for the structures. Where two headings read alike, the source gives them in different places.

Regarding `CN1CCN(c2cc(N3CCN(C4COC4)CC3)cc(Nc3ncn(-c4cc(F)cc(F)c4)n3)n2)CC1` [Compound 650, N-[1-(3,5-difluorophenyl)-1,2,4-triazol-3-yl]-6-(4-methylpiperazin-1-yl)-4-[4-(oxetan-3-yl)piperazin-1-yl]pyridin-2-amine], under setting [1], the fold induction at 1 µM lay within 10 to 100 and the fold induction at 10 µM lay in the range of 1 to 10.
On the same counts, the results for `Cc1cc(Nc2ncn(-c3ccc(F)c(F)c3)n2)cc(OC2CCCOC2)c1` (centres unmarked) [Compound 638, 1-(3,4-difluorophenyl)-N-(3-methyl-5-tetrahydropyran-3-yloxy-phenyl)-1,2,4-triazol-3-amine] are 10 to 100 and 10 to 100.
In the case of `Cc1cc(Nc2ncn(-c3cc(F)cc(F)c3)n2)cc(NC2CCCCC2N2CCOCC2)c1` (centres unmarked) [Compound 939, N3-[1-(3,5-difluorophenyl)-1,2,4-triazol-3-yl]-5-methyl-N1-(2-morpholinocyclohexyl)benzene-1,3-diamine], under setting [2], the fold induction at 1 µM fell in the range of 1 to 10 and the fold induction at 10 µM is at most 1.
The corresponding values for `Cc1cc(Nc2ncn(-c3cc(F)cc(F)c3)n2)cc(N2CC(O)C(N3CCCC3)C2)c1` (centres unmarked) [Compound 1010, 1-[3-[[1-(3,5-difluorophenyl)-1,2,4-triazol-3-yl]amino]-5-methyl-phenyl]-4-pyrrolidin-1-yl-pyrrolidin-3-ol] are 1 to 10 and at most 1.
Regarding `COc1c(F)cc(-n2cnc(Nc3cc(C)cc(N4CCN(C5COC5)CC4)c3)n2)cc1F` [Compound 646, 1-(3,5-difluoro-4-methoxy-phenyl)-N-[3-methyl-5-[4-(oxetan-3-yl)piperazin-1-yl]phenyl]-1,2,4-triazol-3-amine], under setting [1], the fold induction at 1 µM was in the range of 10 to 100 and the fold induction at 10 µM was in the range of 1 to 10.
Take `Fc1cc(Nc2ncn(-c3ccccc3)n2)cc(N2CCOCC2)c1` [Compound 80, N-(3-fluoro-5-morpholino-phenyl)-1-phenyl-1,2,4-triazol-3-amine]: the fold induction at 1 µM under setting [3] lay within 10 to 100. In addition, under setting [4], the fold induction at 10 µM lay in the range of 1000 to 10000.
Consider `COCC1CCN(c2cc(C(F)(F)F)cc(Nc3ncn(-c4cc(F)cc(F)c4)n3)n2)CC1` [Compound 839, N-[1-(3,5-difluorophenyl)-1,2,4-triazol-3-yl]-6-[4-(methoxymethyl)-1-piperidyl]-4-(trifluoromethyl)pyridin-2-amine], for which, under setting [2], the fold induction at 1 µM lay in the range of 1 to 10 and the fold induction at 10 µM is at most 1.
On the same counts, the results for `Cc1cc(Nc2ncn(-c3cc(F)cc(F)c3)n2)cc(N2CCCC(N3CCOCC3)C2)c1` (centres unmarked) [Compound 911, 1-(3,5-difluorophenyl)-N-[3-methyl-5-(3-morpholino-1-piperidyl)phenyl]-1,2,4-triazol-3-amine] are 1 to 10 and 1 to 10.
`Cc1cc(Nc2ncn(-c3cc(F)cc(F)c3)n2)cc(OC2CCN(C3COC3)CC2)c1` [Compound 433, 1-(3,5-difluorophenyl)-N-[3-methyl-5-[[1-(oxetan-3-yl)-4-piperidyl]oxy]phenyl]-1,2,4-triazol-3-amine]: under setting [1], the fold induction at 1 µM lay within 100 to 1000 and the fold induction at 10 µM is 100 to 1000.
With `Cc1cc(NCCN2CCOC(C)C2)cc(Nc2ncn(-c3cc(F)cc(F)c3)n2)c1` (centres unmarked) [Compound 928, N1-[1-(3,5-difluorophenyl)-1,2,4-triazol-3-yl]-5-methyl-N3-[2-(2-methylmorpholin-4-yl)ethyl]benzene-1,3-diamine], under setting [2], the fold induction at 1 µM lay in the range of 10 to 100 and the fold induction at 10 µM is at most 1.
As to `Cc1cc(Nc2ncn(-c3ccccc3)n2)cc(C2CCNC2)c1` (centres unmarked) [Compound 39, N-(3-methyl-5-pyrrolidin-3-yl-phenyl)-1-phenyl-1,2,4-triazol-3-amine], under setting [3], the fold induction at 1 µM was 1000 to 10000. Further, the fold induction at 10 µM under setting [4] is at most 1.
On the same counts, the results for `Cc1cc(Nc2ncn(-c3cc(F)cc(F)c3)n2)cc(N2CC[N+]([O-])(C3COC3)CC2)c1` [Compound 139, 1-(3,5-difluorophenyl)-N-[3-methyl-5-[4-(oxetan-3-yl)-4-oxido-piperazin-4-ium-1-yl]phenyl]-1,2,4-triazol-3-amine] are 100 to 1000 and 1 to 10.
With `Cc1cc(Nc2ncn(-c3cc(F)cc(F)c3)n2)cc(N2CCN(C(=O)OCC(F)(F)F)CC2)c1` [Compound 350, 2,2,2-trifluoroethyl 4-[3-[[1-(3,5-difluorophenyl)-1,2,4-triazol-3-yl]amino]-5-methyl-phenyl]piperazine-1-carboxylate], under setting [3], the fold induction at 1 µM is at most 1. The fold induction at 10 µM under setting [4] was at most 1.
Consider `Fc1cc(F)cc(-n2cnc(Nc3cc(C4CC4)nc(N4CCOCC4)c3)n2)c1` [Compound 405, 2-cyclopropyl-N-[1-(3,5-difluorophenyl)-1,2,4-triazol-3-yl]-6-morpholino-pyridin-4-amine], for which, under setting [1], the fold induction at 1 µM fell in the range of 100 to 1000 and the fold induction at 10 µM lay in the range of 1000 to 10000.
The corresponding values for `Cc1cc(Nc2ncn(-c3ccccc3)n2)cc(Nc2ncn(-c3ccccc3)n2)c1` [Compound 681, 5-methyl-N1,N3-bis(1-phenyl-1,2,4-triazol-3-yl)benzene-1,3-diamine] are 10 to 100 and 1 to 10.
Take `Cc1cc(Nc2ncn(-c3ccc(F)c(F)c3)n2)cc(N2CCOCC2)c1` [Compound 43, 1-(3,4-difluorophenyl)-N-(3-methyl-5-morpholino-phenyl)-1,2,4-triazol-3-amine]: the fold induction at 1 µM under setting [3] was in the range of 100 to 1000. The fold induction at 10 µM under setting [4] was 100 to 1000.
Regarding `Cc1cc(Nc2ncn(-c3cc(F)cc(F)c3)n2)cc(N2CCC(OCCF)CC2)c1` [Compound 950, 1-(3,5-difluorophenyl)-N-[3-[4-(2-fluoroethoxy)-1-piperidyl]-5-methyl-phenyl]-1,2,4-triazol-3-amine], under setting [2], the fold induction at 1 µM is 10 to 100 and the fold induction at 10 µM fell in the range of 1 to 10.
Consider `Cc1cc(N2CCOCC2)cc(Nc2ncn(-c3cccnc3)n2)c1F` [Compound 451, N-(2-fluoro-3-methyl-5-morpholino-phenyl)-1-(3-pyridyl)-1,2,4-triazol-3-amine], for which, under setting [1], the fold induction at 1 µM fell in the range of 1 to 10 and the fold induction at 10 µM lay in the range of 100 to 1000.
The corresponding values for `Cc1cc(Nc2ncn(-c3cc(F)cc(F)c3)n2)cc(N2CCN([C@@H]3CCOC3)CC2)c1` [Compound 531, 1-(3,5-difluorophenyl)-N-[3-methyl-5-[4-[(3R)-tetrahydrofuran-3-yl]piperazin-1-yl]phenyl]-1,2,4-triazol-3-amine] are 100 to 1000 and 100 to 1000.
Turning to `Cc1cc(Nc2ncn(-c3cc(F)cc(F)c3)n2)c(F)c(NC2CCCC2N2CCOCC2)c1` (centres unmarked) [Compound 1007, N3-[1-(3,5-difluorophenyl)-1,2,4-triazol-3-yl]-2-fluoro-5-methyl-N1-(2-morpholinocyclopentyl)benzene-1,3-diamine], under setting [2], the fold induction at 1 µM lay within 1 to 10 and the fold induction at 10 µM lay within 10 to 100.
Consider `Cc1cc(Nc2ncn(-c3cc(F)cc(F)c3)n2)cc(C2CCN(C)CC2)c1` [Compound 151, 1-(3,5-difluorophenyl)-N-[3-methyl-5-(1-methyl-4-piperidyl)phenyl]-1,2,4-triazol-3-amine], for which, under setting [3], the fold induction at 1 µM lay in the range of 10 to 100. Moreover, the fold induction at 10 µM under setting [4] was at most 1.
Consider `Fc1cc(Nc2ncn(-c3cccc(F)c3)n2)cc(N2CCN(C3COC3)CC2)c1` [Compound 594, N-[3-fluoro-5-[4-(oxetan-3-yl)piperazin-1-yl]phenyl]-1-(3-fluorophenyl)-1,2,4-triazol-3-amine], for which, under setting [1], the fold induction at 1 µM lay in the range of 1 to 10 and the fold induction at 10 µM lay within 1 to 10.
Take `Cc1cc(Nc2ncn(-c3cncc(F)c3)n2)cc(N2CCOCC2)c1` [Compound 427, 1-(5-fluoro-3-pyridyl)-N-(3-methyl-5-morpholino-phenyl)-1,2,4-triazol-3-amine]: under setting [1], the fold induction at 1 µM fell in the range of 100 to 1000 and the fold induction at 10 µM is 100 to 1000.
Consider `Cc1cc(Nc2ncn(-c3ccccc3)n2)cc(Nc2ncc(C)o2)c1` [Compound 1049, 5-methyl-N1-(5-methyloxazol-2-yl)-N3-(1-phenyl-1,2,4-triazol-3-yl)benzene-1,3-diamine], for which, under setting [2], the fold induction at 1 µM was 1 to 10 and the fold induction at 10 µM lay in the range of 10 to 100.
The corresponding values for `CCOCC(O)CN1CCN(c2cc(C)cc(Nc3ncn(-c4cc(F)cc(F)c4)n3)c2)CC1` (centres unmarked) [Compound 900, 1-[4-[3-[[1-(3,5-difluorophenyl)-1,2,4-triazol-3-yl]amino]-5-methyl-phenyl]piperazin-1-yl]-3-ethoxy-propan-2-ol] are 1 to 10 and at most 1.
`COc1cc(Nc2ncn(-c3cccc(C(F)(F)F)c3)n2)nc(N2CCN(C3COC3)CC2)c1` [Compound 610, 4-methoxy-6-[4-(oxetan-3-yl)piperazin-1-yl]-N-[1-[3-(trifluoromethyl)phenyl]-1,2,4-triazol-3-yl]pyridin-2-amine]: under setting [1], the fold induction at 1 µM lay within 1 to 10 and the fold induction at 10 µM is 1 to 10.
In the case of `Cc1cc(NC[C@@]2(C)CCCO2)cc(Nc2ncn(-c3cc(F)cc(F)c3)n2)c1` (stereo in doubt) [Compound 490, N1-[1-(3,5-difluorophenyl)-1,2,4-triazol-3-yl]-5-methyl-N3-[(2-methyltetrahydrofuran-2-yl)methyl]benzene-1,3-diamine], under setting [1], the fold induction at 1 µM lay within 10 to 100 and the fold induction at 10 µM is 10 to 100.
Turning to `FC(F)c1cc(Nc2ncn(-c3cccc(C(F)(F)F)c3)n2)nc(N2CC(N3CCOCC3)C2)c1` [Compound 719, 4-(difluoromethyl)-6-(3-morpholinoazetidin-1-yl)-N-[1-[3-(trifluoromethyl)phenyl]-1,2,4-triazol-3-yl]pyridin-2-amine], under setting [1], the fold induction at 1 µM was 1 to 10 and the fold induction at 10 µM is at most 1.
